Experimental data published in ChEMBL document CHEMBL4002573, “New insights into the SAR and drug combination synergy of 2-(quinolin-4-yloxy)acetamides against Mycobacterium tuberculosis” (Eur J Med Chem, 2017).
≈ marks a conversion by molar mass, not a printed value.

Columns and labels:
[1] = test system: Mycobacterium tuberculosis; test: microbe, parasite or virus in culture; conditions: H37Rv, 168 h
Description: Antimycobacterial activity against Mycobacterium tuberculosis H37Rv after 7 days by resazurin reduction microplate assay

[2] = Kinetic solubility in water at pH 5.8; type: physicochemical; conditions: read-out: Kinetic_solubility
[3] = Cytotoxicity against human HepG2 cells assessed as viability at 10 uM after 72 hrs by MTT assay relative to control; type: cell-based; conditions: read-out: Activity
[4] = Intrinsic clearance in human liver S9 fraction at 2 uM by HPLC-MS/MS analysis; type: ADME, tissue-based
[5] = Half life in human liver S9 fraction at 2 uM by HPLC-MS/MS analysis; type: ADME, tissue-based
[6] = Cytotoxicity against human HaCaT cells assessed as viability at 10 uM after 72 hrs by MTT assay relative to control; type: cell-based; conditions: read-out: Activity
[7] = test system: Mycobacterium tuberculosis; test: microbe, parasite or virus in culture; conditions: CDCT-4 (1105/09), 168 h
Description: Antimycobacterial activity against Mycobacterium tuberculosis CDCT-4 (1105/09) clinical isolate after 7 days by resazurin reduction microplate assay

[8] = Thermodynamic solubility of the compound in acetate buffer at pH 4 after 24 hrs by HPLC method; type: physicochemical; conditions: read-out: Therm_solubility
[9] = test system: Mycobacterium tuberculosis; test: microbe, parasite or virus in culture; conditions: PE-003, 168 h
Description: Antimycobacterial activity against Mycobacterium tuberculosis PE-003 clinical isolate after 7 days by resazurin reduction microplate assay

[10] = Cytotoxicity against mouse RAW264.7 cells assessed as viability at 10 uM after 72 hrs by MTT assay relative to control; type: cell-based; conditions: read-out: Activity
[11] = Thermodynamic solubility of the compound in 0.1N HCl at pH 1.5 after 24 hrs by HPLC method; type: physicochemical; conditions: read-out: Therm_solubility
[12] = Cytotoxicity against African green monkey Vero cells assessed as viability at 10 uM after 72 hrs by MTT assay relative to control; type: cell-based; conditions: chlorocebus sabaeus, read-out: Activity
[13] = test system: Mycobacterium tuberculosis; test: Bactericidal activity against Mycobacterium tuberculosis H37Rv infected in mouse RAW264.7 cells assessed as bacterial colony formation at 5 uM after 5 days (reference value: 4.1 to 4.73 log10CU); type: functional
[14] = Kinetic solubility in PBS at pH 7.4; type: physicochemical; conditions: read-out: Kinetic_solubility
[15] = Cytotoxicity against mouse N9 cells assessed as viability at 10 uM after 72 hrs by MTT assay relative to control; type: cell-based; conditions: read-out: Activity

## COc1ccccc1NC(=O)COc1cc(C)nc2ccc(Br)cc12
[1]
  MIC: 0.78 µM

## CCOc1ccc2nc(C)cc(OCC(=O)Nc3ccccc3OC)c2c1
[1]
  MIC: 1.75 µM

## COc1ccc2nc(C)cc(OCC(=O)Nc3ccc4c(c3)CCCC4)c2c1
[2]
  solubility kinetic: 6.6 µM (≈ 2.48 µg/mL)
[3]
  viability at 72 h, 10 µM: 85%
[4]
  CLhep predicted at 2 µM: 15.6 mL/min/kg
[1]
  MIC: 0.05 µM
[5]
  half-life at 2 µM: 16.2 min
[6]
  viability at 72 h, 10 µM: 95%
[7]
  MIC: 0.11 µM (≈ 0.0414 µg/mL)
[8]
  solubility thermodynamic at 24 h: 30 µM (≈ 11.3 µg/mL)
[9]
  MIC: 0.008 µM (≈ 0.00301 µg/mL)
[10]
  viability at 72 h, 10 µM: 82%
[11]
  solubility thermodynamic at 24 h: 90 µM (≈ 33.9 µg/mL)
[12]
  viability at 72 h, 10 µM: 94%
[13]
  Activity: 3.33 log10CFU
[14]
  solubility kinetic: 1.2 µM (≈ 0.452 µg/mL)
[15]
  viability at 72 h, 10 µM: 103%

## COc1ccc2nc(C)cc(OCC(=O)c3ccc4ccccc4c3)c2c1
[1]
  MIC: 1.75 µM

## CCCc1cc(OCC(=O)Nc2ccccc2OC)c2cc(OC)ccc2n1
[1]
  MIC: > 26.3 µM

## COc1ccc2nc(C)cc(OCC(=O)N3CCCCC3)c2c1
[1]
  MIC: > 31.8 µM

## COc1ccc2nc(C)cc(OCC(=O)N[C@@H]3CCCc4ccccc43)c2c1
[1]
  MIC: 13.3 µM

## COc1ccc2nc(C(C)C)cc(OCC(=O)Nc3ccccc3OC)c2c1
[1]
  MIC: > 26.3 µM

## COc1ccccc1NC(=O)COc1cc(C)nc2ccc(C(F)(F)F)cc12
[1]
  MIC: > 25.6 µM

## COc1ccccc1NC(=O)COc1cc(C)nc2ccc(F)cc12
[1]
  MIC: 14.7 µM

## COc1ccc2nc(C)cc(NCC(=O)Nc3ccc4ccccc4c3)c2c1
[1]
  MIC: 6.73 µM

## COc1ccc2nc(C)cc(NCC(=O)Nc3ccccc3OC)c2c1
[1]
  MIC: > 28.5 µM

## COc1ccc2nc(C)cc(OCC(=O)N(C)c3ccccc3OC)c2c1
[1]
  MIC: > 27.3 µM

## COc1ccc2nc(C)cc(OCC(=O)N[C@H]3CCCc4ccccc43)c2c1
[1]
  MIC: 1.66 µM

## COc1ccccc1NC(=O)COc1cc(C)nc2ccc(Cl)cc12
[1]
  MIC: 1.75 µM

## COc1ccc2nc(C)c(Cc3ccccc3)c(OCC(=O)Nc3ccccc3OC)c2c1
[1]
  MIC: > 22.6 µM

## CCc1cc(OCC(=O)Nc2ccccc2OC)c2cc(OC)ccc2n1
[1]
  MIC: 0.86 µM

## COc1ccc2nc(C)cc(OCC(=O)N(c3ccccc3)c3ccccc3)c2c1
[1]
  MIC: > 25.1 µM

## CCc1ccc(NC(=O)COc2cc(C)nc3ccc(OC)cc23)cc1
[2]
  solubility kinetic: 5.2 µM (≈ 1.82 µg/mL)
[3]
  viability at 72 h, 10 µM: 75%
[4]
  CLhep predicted at 2 µM: 16.6 mL/min/kg
[1]
  MIC: 0.06 µM
[5]
  half-life at 2 µM: 12.8 min
[6]
  viability at 72 h, 10 µM: 96%
[7]
  MIC: < 0.06 µM
[8]
  solubility thermodynamic at 24 h: 430 µM (≈ 151 µg/mL)
[9]
  MIC: 0.006 µM (≈ 0.0021 µg/mL)
[10]
  viability at 72 h, 10 µM: 91%
[11]
  solubility thermodynamic at 24 h: 790 µM (≈ 277 µg/mL)
[12]
  viability at 72 h, 10 µM: 80%
[13]
  Activity: 2.81 log10CFU
[14]
  solubility kinetic: 3.8 µM (≈ 1.33 µg/mL)
[15]
  viability at 72 h, 10 µM: 112%

## COc1ccc2nc(C)cc(OCc3ccc4ccccc4c3)c2c1
[1]
  MIC: 1.9 µM

## COc1ccc2nc(C)cc(OCC(=O)Nc3cccc4c3CCCC4)c2c1
[1]
  MIC: 0.83 µM

## CC[C@@H](CO)NCCN[C@@H](CC)CO [ETHAMBUTOL]
[1]
  MIC: 2.5 to 5 µg/mL

## CCc1cc(C(N)=S)ccn1 [ETHIONAMIDE]
[1]
  MIC: 2.5 µg/mL
[7]
  MIC: 11.3 µM (≈ 1.88 µg/mL)
[9]
  MIC: 61.2 µM (≈ 10.2 µg/mL)

## NNC(=O)c1ccncc1 [ISONIAZID]
[1]
  MIC: 0.16 to 1.46 µM
[7]
  MIC: > 70 µM
[9]
  MIC: > 70 µM
[13]
  Activity: 2.44 log10CFU

## COc1c(N2C[C@@H]3CCCN[C@@H]3C2)c(F)cc2c(=O)c(C(=O)O)cn(C3CC3)c12 [MOXIFLOXACIN]
[1]
  MIC: 0.075 µg/mL

## CO[C@H]1/C=C/O[C@@]2(C)Oc3c(C)c(O)c4c(O)c(c(/C=N/N5CCN(C)CC5)c(O)c4c3C2=O)NC(=O)/C(C)=C\C=C\[C@H](C)[C@H](O)[C@@H](C)[C@@H](O)[C@@H](C)[C@H](OC(C)=O)[C@@H]1C [RIFAMPIN]
[1]
  MIC: 0.038 µg/mL
[7]
  MIC: > 100 µM
[13]
  Activity: 2.44 log10CFU

## CN[C@@H]1[C@H](O[C@H]2[C@H](O[C@H]3[C@H](O)[C@@H](O)[C@H](N=C(N)N)[C@@H](O)[C@@H]3N=C(N)N)O[C@@H](C)[C@]2(O)C=O)O[C@@H](CO)[C@H](O)[C@H]1O [STREPTOMYCIN]
[1]
  MIC: 0.31 µg/mL
